Numbers after ± are expanded uncertainties.
Test: xn = mol fraction of the nth substance listed
Conditions: for surface tension liquid-gas: Wilhelmy plate method; for viscosity: 101.3 kPa, Liquid, Concentric cylinders viscometry

CCCCCCCCO [octan-1-ol] + CN(C)C=O
Conditions	surface tension liquid-gas, 298.15 K [mN/m]	surface tension liquid-gas, 303.15 K [mN/m]	surface tension liquid-gas, 308.15 K [mN/m]	surface tension liquid-gas, 313.15 K [mN/m]	viscosity, 298.15 K [mPa·s]	viscosity, 303.15 K [mPa·s]	viscosity, 308.15 K [mPa·s]	viscosity, 313.15 K [mPa·s]
x2 = 0	27.47 ± 0.52	26.42 ± 0.52	25.41 ± 0.52	24.38 ± 0.52	7.661 ± 0.16	6.402 ± 0.13	5.425 ± 0.11	4.628 ± 0.097
x2 = 0.2198	28.07 ± 0.51	26.98 ± 0.51	25.95 ± 0.51	24.91 ± 0.51	4.082 ± 0.085	3.243 ± 0.068	2.678 ± 0.056	2.2 ± 0.046
x2 = 0.3728	28.37 ± 0.51	27.25 ± 0.51	26.18 ± 0.51	25.13 ± 0.51	2.636 ± 0.055	2.012 ± 0.042	1.646 ± 0.034	1.35 ± 0.028
x2 = 0.5208	28.77 ± 0.51	27.6 ± 0.51	26.5 ± 0.51	25.43 ± 0.51	1.794 ± 0.037	1.355 ± 0.029	1.106 ± 0.023	0.9143 ± 0.019
x2 = 0.6277	29.36 ± 0.51	28.17 ± 0.51	27.05 ± 0.51	25.97 ± 0.51	1.41 ± 0.029	1.089 ± 0.023	0.8992 ± 0.019	0.7523 ± 0.016
x2 = 0.7118	30.1 ± 0.51	28.9 ± 0.51	27.77 ± 0.51	26.7 ± 0.5	1.193 ± 0.025	0.9412 ± 0.02	0.804 ± 0.017	0.7006 ± 0.015
x2 = 0.7877	31.04 ± 0.51	29.85 ± 0.51	28.72 ± 0.5	27.66 ± 0.5	1.052 ± 0.022	0.8817 ± 0.019	0.765 ± 0.016	0.6768 ± 0.015
x2 = 0.8519	32.05 ± 0.51	30.88 ± 0.5	29.76 ± 0.5	28.7 ± 0.5	0.9693 ± 0.021	0.8339 ± 0.018	0.7497 ± 0.016	0.6694 ± 0.015
x2 = 0.9085	33.13 ± 0.5	31.98 ± 0.5	30.87 ± 0.5	29.84 ± 0.5	0.9042 ± 0.019	0.8153 ± 0.017	0.7484 ± 0.016	0.6782 ± 0.015
x2 = 0.9556	34.15 ± 0.5	33.03 ± 0.5	31.92 ± 0.5	30.9 ± 0.5	0.8603 ± 0.018	0.7921 ± 0.017	0.7395 ± 0.016	0.6802 ± 0.015
